Measured values reported in paper PMC10671050, “Alkyl Derivatives of Perylene Photosensitizing Antivirals: Towards Understanding the Influence of Lipophilicity” (International Journal of Molecular Sciences, 2023).
Converted amounts (≈) assume the structure as drawn. “Also recorded” adds a separate entry of the source. Read-outs that look alike come from different tables or passages of the source.

Tests used:
[1] = assay type: physicochemical; conditions: methanol, DPBF trap, 450–470 nm, relative to riboflavin
VSV Indiana strain = assay: microbe, parasite or virus in culture; assay type: cell-based, vesicular stomatitis Indiana virus; conditions: Vesicular stomatitis virus, HEK-293T, 1 h, read-out: VSV, EC50
HSV-1, strain MacIntyre [2] = assay: Photodynamic inactivation of HSV-1 (virus treated with compound, plaque assay); assay type: cell-based, herpes simplex virus-1; conditions: for HSV-1-inactivating effect after blue light irradiation: 10 µM
[3] = Light-induced cytotoxicity (photocytotoxicity) in Vero cells; assay type: cell-based, African Green Monkey; conditions: African green monkey, Vero cells; blue light 465–480 nm, 10 min, then 48 h; read-out: cell viability of Vero cells after irradiation
Protocol: (§1) Subsequently, cells treated with the compounds were irradiated with LEDs (465–480 nm, 30 mW/cm^2) for 10 min at RT. As a negative control, compound-treated cells were incubated for 10 min in daylight at RT. Then, both the irradiated and non-irradiated cell monolayers were incubated at 37 °C in the dark for 48 h. Subsequently, the cell culture medium was aspirated and the cytotoxicity of the tested perylene derivatives was determined based on cell viability using Cell Counting Kit-8 (Dojindo Molecular Technologies, Munich, Germany) according to the manufacturer’s instructions. Note: all manipulation with samples was performed in daylight (Figure 7K).

Vero cells = assay: as above; assay type: cell-based, African Green Monkey; conditions: blue light 10 min vs daylight, 0–10 µM, 48 h
Protocol: as §1

[4] = Solubilization in 15% DMSO in water; conditions: for solubility: aqueous with cosolvent or surfactant or cyclodextrin, kinetic from dmso stock
Protocol: To perform this measurement, the compound was dissolved in DMSO and then diluted with water to achieve a solution containing 15% DMSO. The solution was centrifuged, and the resulting supernatant was lyophilized (evaporated) to dryness. Subsequently, the dry residue was dissolved in DMSO, and the concentration of the compound dissolved in DMSO was determined spectrophotometrically.
The mixtures were then centrifuged at 20,000 rcf for 5 min; 500 μL of the supernatant were collected and lyophilized; 76 µL of DMSO were added to the dry residue, and the absorbance was measured at the maximum absorption wavelength for compounds in solutions diluted 200 times with methanol. The data obtained were recalculated according to the law of dilutions and Beer’s law to obtain the initial concentrations of the compounds solubilized in 15% DMSO in water.

HSV-1, strain MacIntyre [5] = assay: HSV-1 titer reduction assay in Vero cells; conditions: 48 h; for viral replication and spread in HSV-1-infected Vero cell culture: inside cell culture (Figure 6C)
[6] = Cytotoxicity assay in Vero cells (Cell Counting Kit-8); assay type: cell-based; conditions: African green monkey, 48 h incubation, compared to controls (DMSO-treated cells)
Protocol: Vero cells were cultured for 24 h in 96-well plates to form a confluent monolayer and then were treated with the tested compounds at concentrations of 50 µM. After 48 h of cultivation in the dark at 37 °C under 5% CO2, the cell culture medium was aspirated. The potential cytotoxicity of the tested derivatives was determined based on cell viability using Cell Counting Kit-8 (Dojindo Molecular Technologies, Munich, Germany) according to the manufacturer’s instructions.

[7] = 10 µM, viral titer in medium supernatant
[8] = Human alphaherpesvirus 1, 10 min, HSV-1 10^4 PFU/mL, blue light 465–480 nm, 30 mW/cm^2, 10 min, plaque assay, read-out: EC50 (µM) under Blue Light
[9] = Human alphaherpesvirus 1, 10 min, HSV-1 10^4 PFU/mL, 10 min in daylight, plaque assay, read-out: EC50 (µM) in Daylight

Row | SMILES | 1O2 Quantum Yield [1] [%] | EC50 (VSV Indiana strain) [µM] | solubility [4] [µM] | anti-HSV-1 activity in Vero cells (HSV-1, strain MacIntyre [5]; [7]) | other results
1 | O=c1[nH]c(=O)n([C@@H]2O[C@H](CO)[C@@H](O)[C@@H]2O)cc1C#Cc1ccc2c3cccc4cccc(c5cccc1c52)c43 [Compound 9, reference compound] | 40.1 ± 4.0 | < 10 |  |  | 
2 | CCCCCCCCc1ccc2c3cccc4c(C#Cc5cn([C@@H]6O[C@H](CO)[C@@H](O)[C@@H]6O)c(=O)[nH]c5=O)ccc(c5cccc1c52)c43 [Compound 9b, 5-[9(10)-Octylperylen-3-ylethynyl]-arabino-uridine] | 18.6 ± 2.3 | 10 to 200 | 0.38 (≈ 0.24 µg/mL) | only moderately active | HSV-1-inactivating effect after blue light irradiation (HSV-1, strain MacIntyre [2]): complete inactivation of HSV-1; viability at 48 h [3]: 115 to 128%; photocytotoxicity to Vero cells (Vero cells): did not increase the cytotoxicity; times less effectively dissolved than deoxy- and ribo- analogs (10b, 11b) ([4]; 15% DMSO in water): approximately 1.5 times
3 | CCCCCCCCCCCCc1ccc2c3cccc4c(C#Cc5cn([C@@H]6O[C@H](CO)[C@@H](O)[C@@H]6O)c(=O)[nH]c5=O)ccc(c5cccc1c52)c43 [Compound 9c, 5-[9(10)-Dodecylperylen-3-ylethynyl]-arabino-uridine] | 22.5 ± 3.4 | > 175 | 0.24 (≈ 0.165 µg/mL) | completely inactive | viability at 48 h [3]: 115 to 128%; photocytotoxicity to Vero cells (Vero cells): did not increase the cytotoxicity
4 | O=c1[nH]c(=O)n([C@@H]2O[C@H](CO)[C@@H](O)[C@H]2O)cc1C#Cc1ccc2c3cccc4cccc(c5cccc1c52)c43 [Compound 10, reference compound] | 33.6 ± 1.2 | < 10 |  |  | EC50 (HSV-1, strain MacIntyre [2]; [8]): 0.116 µM
5 | CCCCc1ccc2c3cccc4c(C#Cc5cn([C@@H]6O[C@H](CO)[C@@H](O)[C@H]6O)c(=O)[nH]c5=O)ccc(c5cccc1c52)c43 [Compound 10a, 5-[9(10)-Butylperylen-3-ylethynyl]-ribo-uridine] | 23.1 ± 2.2 | 10 to 200 | 0.02 (≈ 0.0115 µg/mL) | completely inhibited viral replication; also recorded: higher antiviral potency compared to acyclovir | Decrease in EC50 (Fold) (HSV-1, strain MacIntyre [2]): 20.3 fold; EC50 (HSV-1, strain MacIntyre [2]; [9]): 2.18 µM; EC50 (HSV-1, strain MacIntyre [2]; [8]): 0.107 µM; viability at 48 h, 10 µM [6]: ~80%; solubility in 15% DMSO in water ([4]; 15% DMSO in water): lower solubility; viral replication and spread in HSV-1-infected Vero cell culture (HSV-1, strain MacIntyre [5]; 10 µM): did not suppress viral replication and spread
6 | CCCCCCCCc1ccc2c3cccc4c(C#Cc5cn([C@@H]6O[C@H](CO)[C@@H](O)[C@H]6O)c(=O)[nH]c5=O)ccc(c5cccc1c52)c43 [Compound 10b, 5-[9(10)-Octylperylen-3-ylethynyl]-ribo-uridine] | 19.2 ± 1.5 | > 200 | 0.59 (≈ 0.372 µg/mL) | only moderately active | HSV-1-inactivating effect after blue light irradiation (HSV-1, strain MacIntyre [2]): complete inactivation of HSV-1
7 | CCCCCCCCCCCCc1ccc2c3cccc4c(C#Cc5cn([C@@H]6O[C@H](CO)[C@@H](O)[C@H]6O)c(=O)[nH]c5=O)ccc(c5cccc1c52)c43 [Compound 10c, 5-[9(10)-Dodecylperylen-3-ylethynyl]-ribo-uridine] | 28.7 ± 8.6 | > 200 | 0.24 (≈ 0.165 µg/mL) | completely inactive | 
8 | O=c1[nH]c(=O)n([C@H]2C[C@H](O)[C@@H](CO)O2)cc1C#Cc1ccc2c3cccc4cccc(c5cccc1c52)c43 [Compound 11, reference compound] | 38.6 ± 0.8 | < 10 |  |  | 
9 | CCCCCCCCc1ccc2c3cccc4c(C#Cc5cn([C@H]6C[C@H](O)[C@@H](CO)O6)c(=O)[nH]c5=O)ccc(c5cccc1c52)c43 [Compound 11b, 5-[9(10)-Octylperylen-3-ylethynyl]-deoxy-uridine] | 21.0 ± 2.0 | 10 to 200 | 0.67 (≈ 0.412 µg/mL) | only moderately active | viability at 48 h, 10 µM [6]: ~120%
10 | Oc1ccc(C#Cc2ccc3c4cccc5cccc(c6cccc2c63)c54)cc1 [Compound 12, reference compound] |  | 10 to 200 |  |  | EC50 (HSV-1, strain MacIntyre [2]; Human alphaherpesvirus 1, 10 min, read-out: EC50 (µM) under Blue Light): 0.472 µM; viability at 48 h, 10 µM [6]: 109 to 122%
11 | Oc1cccc(C#Cc2ccc3c4cccc5cccc(c6cccc2c63)c54)c1 [Compound 13, reference compound] |  | 10 to 200 |  |  | viability at 48 h, 10 µM [6]: 109 to 122%
12 | Oc1ccc(C#Cc2ccc3c4cccc5cccc(c6cccc2c63)c54)cc1Br [Compound 14, reference compound] |  | 10 to 200 |  |  | viability at 48 h, 10 µM [6]: 109 to 122%
13 | O=C(O)c1ccc(-c2ccc3c4cccc5cccc(c6cccc2c63)c54)s1 [Compound 15, 5-(perylene-3-yl)thiophenecarboxylic acid, reference compound] | 73.2 ± 8.9 | < 10 |  |  | EC50 (HSV-1, strain MacIntyre [2]; [8]): 0.038 µM
14 | CCCCc1ccc2c3cccc4c(-c5ccc(C(=O)O)s5)ccc(c5cccc1c25)c43 [Compound 15a, 5-[9(10)-Butylperylen-3-yl]thiophene-2-carboxylic acid] | 91.6 ± 0.2 | 0.2 ± 0.2 | 0.11 (≈ 0.0478 µg/mL) | complete inhibition; also recorded: higher antiviral potency compared to acyclovir | Decrease in EC50 (Fold) (HSV-1, strain MacIntyre [2]): 5.4 fold; fold less active than non-alkylated counterparts (12, 15) (HSV-1, strain MacIntyre [2]): ~3 fold; EC50 (HSV-1, strain MacIntyre [2]; HSV-1 10^4 PFU/mL, 10 min in daylight, plaque assay, read-out: EC50 (µM) in Daylight): 0.608 µM; EC50 (HSV-1, strain MacIntyre [2]; HSV-1 10^4 PFU/mL, blue light 465–480 nm, 30 mW/cm^2, 10 min, plaque assay, read-out: EC50 (µM) under Blue Light): 0.112 µM; EC50 (HSV-1, strain MacIntyre [2]; [9]): 0.61 µM; EC50 (HSV-1, strain MacIntyre [2]; [8]): ~0.1 µM; viral replication and spread in HSV-1-infected Vero cell culture (HSV-1, strain MacIntyre [5]; 10 µM): did not suppress viral replication and spread
15 | CCCCCCCCc1ccc2c3cccc4c(-c5ccc(C(=O)O)s5)ccc(c5cccc1c25)c43 [Compound 15b, 5-[9(10)-Octylperylen-3-yl]thiophene-2-carboxylic acid] | 72.9 ± 5.6 | 10 to 200 | 0.1 (≈ 0.0491 µg/mL) | complete inhibition; also recorded: higher antiviral potency compared to acyclovir | Decrease in EC50 (Fold) (HSV-1, strain MacIntyre [2]): >3.5 fold; fold less active than non-alkylated counterparts (12, 15) (HSV-1, strain MacIntyre [2]): ~3 fold; HSV-1-inactivating effect in daylight (HSV-1, strain MacIntyre [2]; 0–10 µM, daylight): only partial or no viral inactivation; also recorded: no virus-inactivating effect; EC50 (HSV-1, strain MacIntyre [2]; [9]): > 10 µM; EC50 (HSV-1, strain MacIntyre [2]; [8]): 2.89 µM; viral replication and spread in HSV-1-infected Vero cell culture (HSV-1, strain MacIntyre [5]; 10 µM): did not suppress viral replication and spread
16 | CCCCCCCCCCCCc1ccc2c3cccc4c(-c5ccc(C(=O)O)s5)ccc(c5cccc1c25)c43 [Compound 15c, 5-[9(10)-Dodecylperylen-3-yl]thiophene-2-carboxylic acid] | 79.8 ± 8.9 | 10 to 200 | 0.05 (≈ 0.0273 µg/mL) | no anti-HSV-1 activity | HSV-1-inactivating effect after blue light irradiation (HSV-1, strain MacIntyre [2]): no virus-inactivating effect
17 | Nc1nc2c(ncn2COCCO)c(=O)[nH]1 [acyclovir, reference compound] |  |  |  |  | anti-HSV-1 activity in Vero cells (HSV-1, strain MacIntyre [5]; 50 µM): completely inhibited HSV-1 replication
